Data taken from patent US12486290B2, “Isoindolinone and indazole compounds for the degradation of EGFR” (C4 THERAPEUTICS, INC., priority 2019, dated 2025).

Columns and labels:
[1] = biological target: T1, EGFR L858R (NCI-H3255 cells) (Homo sapiens, UniProt P00533, L858R); test: EGFR (L858R) degradation analysis, Total EGFR (L858R) HTRF, NCI-H3255 cells; format: cell-based; details: 6 hours
T1 construct: NCI-H3255 (harboring EGFR heterozygous L858R mutation); host or cells: NCI-H3255
Source text: (§1) NCI-H1975 (harboring EGFR heterozygous T790M/L858R mutations) and NCI-H3255 (harboring EGFR heterozygous L858R mutation) were purchased from ATCC and NCI, respectively. NCI-H1975+CS (harboring EGFR heterozygous T/790M/L858R/C797S mutations) was generated using CRISPR technology to introduce the additional C797S mutation by Horizon Discovery. RPMI 1640 no-phenol red medium and fetal bovine serum (FBS) were purchased from Gibco (Grand Island, NY, USA). Cell culture flasks and 384-well microplates were acquired from VWR (Radnor, PA, USA). Total EGFR (L858R) HTRF assay kits were purchased from Cisbio (Bedford, MA, USA).
(§2) Degradation of EGFR protein containing L858R mutation was determined based on quantification of FRET signal using Total EGFR (L858R) HTRF assay kit. Test compounds were added to the 384-well plate from a top concentration of 10 μM with 11 points, half log titration in duplicates. NCI-H1975, NCI-H1975+CS or NCI-H3255 cells were added into 384-well plates at a cell density of 10000, 10000 or 1000 cells per well, respectively. The plates were kept at 37° C. with 5% CO2 for 6 hours. Cells treated in the absence of the test compound were the negative control. Positive control was set by wells containing all reagents but no cells. FRET signal was acquired on EnVision™ Multilabel Reader (PerkinElmer, Santa Clara, CA, USA).

[2] = biological target: T2, EGFR T790M/L858R (NCI-H1975 cells) (Homo sapiens, UniProt P00533, L858R/T790M); test: EGFR (L858R) degradation analysis, Total EGFR (L858R) HTRF, NCI-H1975 cells; format: cell-based; details: 6 hours
T2 construct: NCI-H1975 (harboring EGFR heterozygous T790M/L858R mutations); host or cells: NCI-H1975
Source text: as §1, §2

T1 sequence (P00533 25-1210 L858R): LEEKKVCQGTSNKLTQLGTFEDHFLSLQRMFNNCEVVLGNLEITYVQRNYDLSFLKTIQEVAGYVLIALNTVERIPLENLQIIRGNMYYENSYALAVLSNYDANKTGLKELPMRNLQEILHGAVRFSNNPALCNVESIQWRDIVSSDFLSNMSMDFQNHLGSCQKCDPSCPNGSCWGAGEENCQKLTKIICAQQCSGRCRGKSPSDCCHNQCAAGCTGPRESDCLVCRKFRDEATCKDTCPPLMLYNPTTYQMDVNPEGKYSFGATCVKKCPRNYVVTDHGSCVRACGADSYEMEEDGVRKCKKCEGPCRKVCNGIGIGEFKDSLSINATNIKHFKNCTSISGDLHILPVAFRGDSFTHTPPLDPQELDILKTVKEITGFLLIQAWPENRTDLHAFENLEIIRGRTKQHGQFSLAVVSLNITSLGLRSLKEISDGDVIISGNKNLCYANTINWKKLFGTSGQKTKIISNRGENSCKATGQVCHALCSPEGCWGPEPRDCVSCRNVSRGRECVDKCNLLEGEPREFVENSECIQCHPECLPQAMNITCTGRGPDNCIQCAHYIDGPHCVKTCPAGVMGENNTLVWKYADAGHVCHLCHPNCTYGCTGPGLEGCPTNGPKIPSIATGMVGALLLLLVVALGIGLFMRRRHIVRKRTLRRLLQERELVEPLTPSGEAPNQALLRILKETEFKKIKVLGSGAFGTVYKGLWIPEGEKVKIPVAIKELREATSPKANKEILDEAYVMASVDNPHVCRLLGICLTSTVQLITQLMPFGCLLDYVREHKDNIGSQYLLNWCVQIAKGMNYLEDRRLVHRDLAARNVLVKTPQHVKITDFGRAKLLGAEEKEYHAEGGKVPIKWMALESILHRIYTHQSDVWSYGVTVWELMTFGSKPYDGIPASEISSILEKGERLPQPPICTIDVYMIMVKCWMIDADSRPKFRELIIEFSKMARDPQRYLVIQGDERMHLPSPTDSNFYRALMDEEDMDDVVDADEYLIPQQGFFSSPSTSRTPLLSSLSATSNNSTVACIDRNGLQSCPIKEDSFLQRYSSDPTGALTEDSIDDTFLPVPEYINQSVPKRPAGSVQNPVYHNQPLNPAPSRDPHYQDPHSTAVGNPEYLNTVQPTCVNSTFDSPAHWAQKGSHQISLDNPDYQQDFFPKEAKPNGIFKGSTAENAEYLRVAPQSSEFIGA
T2 sequence (P00533 25-1210 T790M/L858R): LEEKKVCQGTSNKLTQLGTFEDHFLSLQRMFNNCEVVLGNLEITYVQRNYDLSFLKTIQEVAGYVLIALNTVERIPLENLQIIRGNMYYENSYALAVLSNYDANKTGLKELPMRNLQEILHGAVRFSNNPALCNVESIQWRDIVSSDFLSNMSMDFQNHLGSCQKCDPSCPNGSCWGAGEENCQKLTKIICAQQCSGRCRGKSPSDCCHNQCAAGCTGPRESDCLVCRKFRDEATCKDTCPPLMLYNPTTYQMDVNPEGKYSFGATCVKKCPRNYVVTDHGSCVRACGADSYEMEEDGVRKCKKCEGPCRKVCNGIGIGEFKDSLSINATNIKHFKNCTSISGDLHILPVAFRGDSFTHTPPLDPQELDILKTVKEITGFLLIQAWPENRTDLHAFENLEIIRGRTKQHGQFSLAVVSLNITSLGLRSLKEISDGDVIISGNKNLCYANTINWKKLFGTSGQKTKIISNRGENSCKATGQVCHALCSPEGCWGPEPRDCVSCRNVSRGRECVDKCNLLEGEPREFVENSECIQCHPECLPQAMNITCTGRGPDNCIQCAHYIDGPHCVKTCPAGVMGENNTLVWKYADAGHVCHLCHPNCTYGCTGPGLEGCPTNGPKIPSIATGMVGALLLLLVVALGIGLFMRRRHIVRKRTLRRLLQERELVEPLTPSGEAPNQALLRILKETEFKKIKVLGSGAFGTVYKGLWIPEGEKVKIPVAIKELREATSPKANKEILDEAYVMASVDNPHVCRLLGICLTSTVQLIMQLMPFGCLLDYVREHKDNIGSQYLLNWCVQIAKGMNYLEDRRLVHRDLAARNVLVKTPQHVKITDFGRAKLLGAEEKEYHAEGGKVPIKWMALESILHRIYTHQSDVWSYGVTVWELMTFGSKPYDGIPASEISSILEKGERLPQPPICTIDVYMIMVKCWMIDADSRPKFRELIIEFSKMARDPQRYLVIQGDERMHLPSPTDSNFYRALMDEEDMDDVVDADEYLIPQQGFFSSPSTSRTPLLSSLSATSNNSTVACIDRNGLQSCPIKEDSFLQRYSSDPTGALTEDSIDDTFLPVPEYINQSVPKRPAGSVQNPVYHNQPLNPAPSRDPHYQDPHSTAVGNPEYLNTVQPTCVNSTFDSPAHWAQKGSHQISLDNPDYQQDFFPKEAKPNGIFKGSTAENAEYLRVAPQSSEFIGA

Q: `O=C1CCC(Nc2ccc(C3CCN(CC(=O)N4CCN(c5ccc(-c6cc(F)c7c(c6)C(=O)N(C(C(=O)Nc6nccs6)c6ncn8c6CCC8)C7)cc5)CC4)CC3)c(F)c2)C(=O)N1` (stereo not shown) [Compound 12, 2-(6,7-dihydro-5H-pyrrolo[1,2-c]imidazol-1-yl)-2-[6-[4-[4-[2-[4-[4-[(2,6-dioxo-3-piperidyl)amino]-2-fluoro-phenyl]-1-piperidyl]acetyl]piperazin-1-yl]phenyl]-4-fluoro-1-oxo-isoindolin-2-yl]-N-thiazol-2-yl-acetamide] was tested. Which DC50 [1] did it give?
A: 0.011 µM

Q: What about the DC50 [2] of the same molecule?
A: 0.039 µM

Q: Which results are given for `O=C1CC[C@H](Nc2ccc(C3CCN(CC(=O)N4CCC(NC(=O)c5ccc(C#Cc6cc(F)c7c(c6)C(=O)N(C(C(=O)Nc6nccs6)c6ncn8c6CCC8)C7)cn5)CC4)CC3)c(F)c2)C(=O)N1` (stereo partly drawn) [Compound 4, 5-[2-[2-[1-(6,7-dihydro-5H-pyrrolo[1,2-c]imidazol-1-yl)-2-oxo-2-(thiazol-2-ylamino)ethyl]-7-fluoro-3-oxo-isoindolin-5-yl]ethynyl]-N-[1-[2-[4-[4-[[(3S)-2,6-dioxo-3-piperidyl]amino]-2-fluoro-phenyl]-1-piperidyl]acetyl]-4-piperidyl]pyridine-2-carboxamide]?
A: DC50 [1]: 0.009 µM; DC50 [2]: 0.01 µM

Q: Which DC50 [1] does the source give for `O=C1CCC(Nc2ccc(C3CCN(CC(=O)N4CCN(Cc5ccc(-c6cc(F)c7c(c6)C(=O)N(C(C(=O)Nc6nccs6)c6ncn8c6CCC8)C7)cc5)CC4)CC3)cc2)C(=O)N1` (stereo not shown) [Compound 56, 2-(6,7-dihydro-5H-pyrrolo[1,2-c]imidazol-1-yl)-2-[6-[4-[[4-[2-[4-[4-[(2,6-dioxo-3-piperidyl)amino]phenyl]-1-piperidyl]acetyl]piperazin-1-yl]methyl]phenyl]-4-fluoro-1-oxo-isoindolin-2-yl]-N-thiazol-2-yl-acetamide] here?
A: 0.014 µM

Q: What about the DC50 [2] of the same molecule?
A: 0.02 µM

Q: Which results are given for `O=C1CCC(Nc2ccc(C3CCN(CC(=O)N4CCN(c5ccc(-c6cc(F)c7c(c6)C(=O)N(C(C(=O)Nc6nccs6)c6ncn8c6CCC8)C7)cc5)CC4)CC3)nc2)C(=O)N1` (stereo not shown) [Compound 11, 2-(6,7-dihydro-5H-pyrrolo[1,2-c]imidazol-1-yl)-2-[6-[4-[4-[2-[4-[5-[(2,6-dioxo-3-piperidyl)amino]-2-pyridyl]-1-piperidyl]acetyl]piperazin-1-yl]phenyl]-4-fluoro-1-oxo-isoindolin-2-yl]-N-thiazol-2-yl-acetamide]?
A: DC50 [1]: 0.021 µM; DC50 [2]: 0.02 µM

Q: What does the source list for `O=C1CC[C@H](Nc2ccc(C3CCN(CC(=O)N4CCN(c5ccc(-c6cc(F)c7cn(C(C(=O)Nc8nccs8)c8ncn9c8CCC9)nc7c6)cn5)CC4)CC3)c(F)c2)C(=O)N1` (stereo partly drawn) [Compound 68, 2-(6,7-dihydro-5H-pyrrolo[1,2-c]imidazol-1-yl)-2-(6-(6-(4-(2-(4-(4-(((S)-2,6-dioxopiperidin-3-yl)amino)-2-fluorophenyl)piperidin-1-yl)acetyl)piperazin-1-yl)pyridin-3-yl)-4-fluoro-2H-indazol-2-yl)-N-(thiazol-2-yl)acetamide]?
A: DC50 [1]: 0.034 µM; DC50 [2]: 0.028 µM

Q: Which DC50 [1] does the source give for `O=C1CCC(Nc2ccc(C3CCN(CC(=O)N4CCN(c5ccc(-c6cc(F)c7cn(C(C(=O)Nc8nccs8)c8ncn9c8CCC9)nc7c6)cn5)CC4)CC3)nc2)C(=O)N1` (stereo not shown) [Compound 66, 2-(6,7-dihydro-5H-pyrrolo[1,2-c]imidazol-1-yl)-2-[6-[6-[4-[2-[4-[5-[(2,6-dioxo-3-piperidyl)amino]-2-pyridyl]-1-piperidyl]acetyl]piperazin-1-yl]-3-pyridyl]-4-fluoro-indazol-2-yl]-N-thiazol-2-yl-acetamide] here?
A: 0.031 µM

Q: And the DC50 [2]?
A: 0.033 µM

Q: `O=C1CC[C@H](Nc2ccc(C3CCN(CC(=O)N4CC5(CCN(c6ccc(-c7cc(F)c8c(c7)C(=O)N(C(C(=O)Nc7nccs7)c7ncn9c7CCC9)C8)cc6)CC5)C4)CC3)c(F)c2)C(=O)N1` (stereo partly drawn) [Compound 46, 2-(6,7-dihydro-5H-pyrrolo[1,2-c]imidazol-1-yl)-2-(6-(4-(2-(2-(4-(4-(((S)-2,6-dioxopiperidin-3-yl)amino)-2-fluorophenyl)piperidin-1-yl)acetyl)-2,7-diazaspiro[3.5]nonan-7-yl)phenyl)-4-fluoro-1-oxoisoindolin-2-yl)-N-(thiazol-2-yl)acetamide] was tested. Which DC50 [1] did it give?
A: 0.051 µM

Q: What about the DC50 [2] of the same molecule?
A: 0.051 µM

Q: Which DC50 [1] does the source give for `O=C1CC[C@H](Nc2ccc(C3CCN(CC(=O)N4CC5(C4)CN(c4ccc(-c6cc(F)c7c(c6)C(=O)N(C(C(=O)Nc6ccccn6)c6ncn8c6CCC8)C7)cc4)C5)CC3)c(F)c2)C(=O)N1` (stereo partly drawn) [Compound 53, 2-(6,7-dihydro-5H-pyrrolo[1,2-c]imidazol-1-yl)-2-[6-[4-[2-[2-[4-[4-[[(3S)-2,6-dioxo-3-piperidyl]amino]-2-fluoro-phenyl]-1-piperidyl]acetyl]-2,6-diazaspiro[3.3]heptan-6-yl]phenyl]-4-fluoro-1-oxo-isoindolin-2-yl]-N-(2-pyridyl)acetamide] here?
A: 0.037 µM

Q: What about the DC50 [2] of the same molecule?
A: 0.064 µM

Q: Which results are given for `O=C1CCC(Nc2ccc(C3CCN(C(=O)C(=O)N4CCC(Oc5ccc(-c6cc(F)c7c(c6)C(=O)N(C(C(=O)Nc6nccs6)c6ncn8c6CCC8)C7)cc5)CC4)CC3)cc2)C(=O)N1` (stereo not shown) [Compound 40, 2-(6,7-dihydro-5H-pyrrolo[1,2-c]imidazol-1-yl)-2-[6-[4-[[1-[2-[4-[4-[(2,6-dioxo-3-piperidyl)amino]phenyl]-1-piperidyl]-2-oxo-acetyl]-4-piperidyl]oxy]phenyl]-4-fluoro-1-oxo-isoindolin-2-yl]-N-thiazol-2-yl-acetamide]?
A: DC50 [1]: 0.014 µM; DC50 [2]: 0.021 µM

Q: For `Cn1nc(N2CCC(=O)NC2=O)c2ccc(C3CCN(CC(=O)N4CCN(c5ccc(-c6cc(F)c7c(c6)C(=O)N(C(C(=O)Nc6nccs6)c6ncn8c6C[C@@H](F)C8)C7)cc5)CC4)CC3)cc21` (stereo partly drawn) [Compound 45, 2-[6-[4-[4-[2-[4-[3-(2,4-dioxohexahydropyrimidin-1-yl)-1-methyl-indazol-6-yl]-1-piperidyl]acetyl]piperazin-1-yl]phenyl]-4-fluoro-1-oxo-isoindolin-2-yl]-2-[(6R)-6-fluoro-6,7-dihydro-5H-pyrrolo[1,2-c]imidazol-1-yl]-N-thiazol-2-yl-acetamide], which DC50 [1] is on record?
A: 0.016 µM

Q: What about the DC50 [2] of the same molecule?
A: 0.014 µM

Q: Which results are given for `O=C1CC[C@H](Nc2ccc(C3CCN(CC(=O)N4CCC(c5ccc(-c6cc(F)c7c(c6)C(=O)N(C(C(=O)Nc6nccs6)c6ncn8c6CCC8)C7)cc5)CC4)CC3)cc2)C(=O)N1` (stereo partly drawn) [Compound 22, 2-(6,7-dihydro-5H-pyrrolo[1,2-c]imidazol-1-yl)-2-(6-(4-(1-(2-(4-(4-(((S)-2,6-dioxopiperidin-3-yl)amino)phenyl)piperidin-1-yl)acetyl)piperidin-4-yl)phenyl)-4-fluoro-1-oxoisoindolin-2-yl)-N-(thiazol-2-yl)acetamide]?
A: DC50 [1]: 0.015 µM; DC50 [2]: 0.031 µM

Q: `Cn1nc(N2CCC(=O)NC2=O)c2ccc(C3CCN(CC(=O)N4CCN(c5ccc(-c6cc(F)c7cn(C(C(=O)Nc8nccs8)c8ncn9c8CCC9)nc7c6)cn5)CC4)CC3)cc21` (stereo not shown) [Compound 67, 2-(6,7-dihydro-5H-pyrrolo[1,2-c]imidazol-1-yl)-2-[6-[6-[4-[2-[4-[3-(2,4-dioxohexahydropyrimidin-1-yl)-1-methyl-indazol-6-yl]-1-piperidyl]acetyl]piperazin-1-yl]-3-pyridyl]-4-fluoro-indazol-2-yl]-N-thiazol-2-yl-acetamide] was tested. Which DC50 [1] did it give?
A: 0.05 µM

Q: What about the DC50 [2] of the same molecule?
A: 0.027 µM

Q: What does the source list for `O=C1CC[C@H](Nc2ccc(C3CCN(CC(=O)N4CCC(n5cc(-c6cc(F)c7c(c6)C(=O)N(C(C(=O)Nc6nccs6)c6ncn8c6CCC8)C7)nn5)CC4)CC3)cc2)C(=O)N1` (stereo partly drawn) [Compound 30, 2-(6,7-dihydro-5H-pyrrolo[1,2-c]imidazol-1-yl)-2-(6-(1-(1-(2-(4-(4-(((S)-2,6-dioxopiperidin-3-yl)amino)phenyl)piperidin-1-yl)acetyl)piperidin-4-yl)-1H-1,2,3-triazol-4-yl)-4-fluoro-1-oxoisoindolin-2-yl)-N-(thiazol-2-yl)acetamide]?
A: DC50 [1]: 0.035 µM; DC50 [2]: 0.015 µM

Q: With `Cn1nc(N2CCC(=O)NC2=O)c2ccc(C3CCN(CC(=O)N4CC5(C4)CN(c4ccc(-c6cc(F)c7c(c6)C(=O)N(C(C(=O)Nc6nccs6)c6ncn8c6CCC8)C7)cc4)C5)CC3(F)F)cc21` (stereo not shown) [Compound 50, 2-(6,7-dihydro-5H-pyrrolo[1,2-c]imidazol-1-yl)-2-[6-[4-[2-[2-[4-[3-(2,4-dioxohexahydropyrimidin-1-yl)-1-methyl-indazol-6-yl]-3,3-difluoro-1-piperidyl]acetyl]-2,6-diazaspiro[3.3]heptan-6-yl]phenyl]-4-fluoro-1-oxo-isoindolin-2-yl]-N-thiazol-2-yl-acetamide] as the molecule, how does the DC50 [2] read?
A: 0.01 µM

Q: Which DC50 ([2]; class symbols) does the source give for `O=C1CC[C@H](Nc2ccc(N3CCC(O)(C(=O)N4CC5(C4)CN(c4ccc(-c6cc(F)c7c(c6)C(=O)N(C(C(=O)Nc6nccs6)c6ncn8c6CCC8)C7)cc4)C5)CC3)c(F)c2)C(=O)N1` (stereo partly shown) [Compound 146, 2-(6,7-dihydro-5H-pyrrolo[1,2-c]imidazol-1-yl)-2-[6-[4-[2-[1-[4-[[2,6-dioxo-3-piperidyl]amino]-2-fluoro-phenyl]-4-hydroxy-piperidine-4-carbonyl]-2,6-diazaspiro[3.3]heptan-6-yl]phenyl]-4-fluoro-1-oxo-isoindolin-2-yl]-N-thiazol-2-yl-acetamide] here?
A: < 0.05 µM
